# Experimental data reported in the NIST ThermoML archive (doi:10.1021/je400282h).
# Numbers after ± are expanded uncertainties.
# Conditions: Liquid, Ebulliometric method (Recirculating still)
Compound,vapor or sublimation pressure (391.03 K),vapor or sublimation pressure (373.15 K)
CC(=O)O [acetic acid],101.32 ± 0.46 kPa,
O [water],,101.32 ± 0.46 kPa
